Assay results as given in patent US7144864B2, “Carboxypeptidase R inhibiting peptide” (Hidechika Okada, priority 2002, dated 2006).
“Also recorded” adds a separate entry of the source. Bridge positions count the residues as written; N and C are the ends. Ends that are not written are not given here. Peptide text beside a SMILES is read from it.

Assays:
[1] = molecular target: T1, purified CPR (carboxypeptidase R) (Homo sapiens, UniProt Q96IY4); assay: CPR kinetics: inhibition of CPR-catalysed hydrolysis of hippuryl-L-arginine; type: biochemical
T1 construct: from tissue
T1 sequence (Q96IY4 115-423): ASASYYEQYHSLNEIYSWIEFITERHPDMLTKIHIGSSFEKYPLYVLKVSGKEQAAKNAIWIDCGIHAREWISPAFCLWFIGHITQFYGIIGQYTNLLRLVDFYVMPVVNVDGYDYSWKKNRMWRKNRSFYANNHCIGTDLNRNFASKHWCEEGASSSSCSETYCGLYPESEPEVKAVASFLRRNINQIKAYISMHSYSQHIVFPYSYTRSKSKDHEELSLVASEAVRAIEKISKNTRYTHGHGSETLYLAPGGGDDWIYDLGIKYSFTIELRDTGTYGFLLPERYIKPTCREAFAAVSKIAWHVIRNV
Experimental: (§1) ProCPR was purified to homogeneity as previously described. […] CPN was purified to homogeneity as previously described. The enzyme gave three bands on SDS-PAGE at 83 kDa, 53 kDa and 50 kDa corresponding to the two large identical glycosylated subunits and the two smaller active subunits, respectively.
The activity of the CPR inhibitors was determined against purified CPR using hippuryl-L-arginine as the substrate. The peptides PCI-2K-R, CPI-2KR, PCI (500, 250/125/62.5, 50 mg/ml, respectively) or Tris-HCl buffer (50 mM; pH 7.5) were added to active CPR (40–320 mg/ml) at a 1:7 ratio. After thorough mixing, […] was incubated with various concentrations of hippuryl-L-arginine (1.2–6.0 mM), for 15 minutes at 37° C. The reaction was stopped with the addition of sodium phosphate buffer ([…]; 0.25 M), immediately followed by 3% cyanuric chloride in 1,4-dioxane ([…]). After mixing well, the generation of hippuric acid was determined by measuring the OD at 405 nm on a SpectraMAX 250 Microplate Spectrophotometer (Molecular Device Corporation, Sunnyvale, Calif., USA). Hippuric acid (0–2.0 mM) in Tris buffer was used as the standard.
A kinetics analysis of the CPR-catalysed hydrolysis of hippuryl-L-arginine in the absence and presence of inhibitory molecules was performed. The Lineweaver-Burk reciprocal plot, based on rearrangement of the Henri-Michaelis-Menten equation into a linear form, was applied:
[formula] where v (in mM sec^−1) is the instantaneous or initial velocity, [S] (mM) is the substrate concentration, Km(mM)is equivalent to the substrate concentration that yields half-maximal velocity and Vmax(mM sec^−1) is the maximum velocity. For competitive inhibition, where the inhibitor competes with the substrate for binding to the enzyme, the following mechanism was assumed: where
In competitive inhibition, the apparent Vmax is not affected with increasing inhibitor concentrations because once substrate binds the reaction proceeds normally (i.e. Vmax depends only on maximum ES complex concentration, which only depends on the total amount of enzyme present) However, the apparent Km increases (i.e. a higher substrate concentration is required for a given velocity) by a factor of [1+([I]/Ki)].
[formula] where Kmapp is the apparent Km for a given inhibitor concentration.
The Dixon plot (1/v versus [I] in the presence of different concentrations of substrate) provides a more diagnostic way of identifying the type of inhibition and determining the Ki: […]

[2] = molecular target: T2, purified CPN (carboxypeptidase N) (Homo sapiens, UniProt P15169); assay: CPN kinetics: effect on purified CPN with hippuryl-L-arginine as substrate; type: biochemical
T2 construct: corresponding to the two large identical glycosylated subunits and the two smaller active subunits; from tissue
T2 sequence (P15169 21-458): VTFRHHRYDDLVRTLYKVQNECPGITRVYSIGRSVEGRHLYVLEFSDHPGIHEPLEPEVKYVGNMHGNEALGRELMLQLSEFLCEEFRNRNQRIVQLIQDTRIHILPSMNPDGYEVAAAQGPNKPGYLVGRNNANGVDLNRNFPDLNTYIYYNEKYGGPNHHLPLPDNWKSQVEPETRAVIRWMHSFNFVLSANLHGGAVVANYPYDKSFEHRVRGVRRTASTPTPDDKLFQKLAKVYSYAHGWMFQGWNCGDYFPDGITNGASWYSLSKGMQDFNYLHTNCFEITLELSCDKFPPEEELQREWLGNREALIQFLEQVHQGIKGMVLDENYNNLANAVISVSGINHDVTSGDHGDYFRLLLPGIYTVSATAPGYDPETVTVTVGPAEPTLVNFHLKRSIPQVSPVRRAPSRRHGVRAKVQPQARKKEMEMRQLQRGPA
T2 sequence (P22792 22-545 partner): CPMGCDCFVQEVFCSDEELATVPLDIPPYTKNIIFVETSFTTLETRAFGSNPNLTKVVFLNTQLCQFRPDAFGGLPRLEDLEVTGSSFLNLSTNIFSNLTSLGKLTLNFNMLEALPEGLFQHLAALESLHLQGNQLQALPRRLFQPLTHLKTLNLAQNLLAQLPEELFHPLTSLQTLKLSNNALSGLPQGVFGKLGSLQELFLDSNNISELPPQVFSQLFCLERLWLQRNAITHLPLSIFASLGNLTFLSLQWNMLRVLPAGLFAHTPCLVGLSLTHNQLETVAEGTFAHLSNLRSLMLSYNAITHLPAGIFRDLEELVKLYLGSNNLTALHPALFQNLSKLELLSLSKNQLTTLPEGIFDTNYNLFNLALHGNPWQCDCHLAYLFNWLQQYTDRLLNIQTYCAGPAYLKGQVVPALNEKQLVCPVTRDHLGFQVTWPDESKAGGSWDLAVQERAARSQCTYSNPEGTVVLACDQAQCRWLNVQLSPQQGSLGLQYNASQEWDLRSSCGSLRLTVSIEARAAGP
Experimental: as §1
The effect of CPI-2KR on purified CPN was determined using hippuryl-L-arginine as the substrate. Guanidinoethylmercaptosuccinic acid (GEMSA) was used as a positive control. CPI-2KR ([…]), GEMSA ([…]) or Tris-HCl buffer (50 mM; pH 7.5) were added to CPN (10 mg/ml) at a 1:7 ratio. Identical conditions to those used for the CPR kinetics experiments were subsequently applied.

[3] = tested on: TM-induced retardation of t-PA-induced fibrinolysis; assay: TM-induced retardation of t-PA-induced fibrinolysis in human plasma (clot lysis); type: biochemical
Experimental: Human plasma was obtained by centrifugation of citrated blood at 3000 g for 15 minutes at room temperature. In a 96-well microtitre plate, […] of a thrombin/calcium mix [50 ml calcium (CaCl Q; 1 M), […] of thrombin (T; 500 U/ml) and 430 ml of Tris buffer (50 mM, pH 7.5)] was added followed by 10 ml of thrombomodulin (TM; final concentration 8 nM). Subsequently, 10 ml of peptide solution in Tris buffer (16 mg/ml […]), Tris buffer or PCI (50 mg/ml) were added. After the addition of 50 ml of a t-PA/plasma mix [[…] of t-PA (130 mg/ml) mixed with 1 ml of pre-warmed citrated plasma (37° C. for 5 minutes) ] the plate was immediately read at 420 nm every 5 minutes for 2 hours on a SpectraMAX 250 Microplate Spectrophotometer (Molecular Device Corporation, Sunnyvale, Calif., USA). Lysis time was defined as the time required for the absorbance to reach half the difference between the plateau reached after clotting and baseline achieved at clot lysis.

CPR = molecular target: T3, CPR (Homo sapiens, UniProt Q96IY4); conditions: cited from earlier work
T3 sequence (Q96IY4 115-423): T1 sequence (Q96IY4 115-423)

## C[C@H](NC(=O)[C@H](CC(N)=O)NC(=O)[C@H](CCCCN)NC(=O)[C@H](C)NC(=O)[C@@H]1CCCN1C(=O)[C@H](CCCCN)NC(=O)[C@@H](N)CS)C(=O)N[C@@H](CCCNC(=N)N)C(=O)N[C@@H](CS)C(N)=O [CPI-2KR] (H-CKPAKNARC-NH2; N-terminus assumed)
[1]
  Ki, fold higher than that of PCI: 6 fold
  binding affinity for CPR, fold stronger than PCI-2K-R: ~46 fold
  inhibitory activity against CPR (in words): competitive inhibitor
[2]; at 506 nM
  inhibitory activity against CPN: did not exhibit any inhibitory activity
[3]
  effect on TM-induced retardation of t-PA-induced fibrinolysis (in words): synergistically accelerated fibrinolysis; also recorded: dose-responsive inhibition
  effective inhibitory concentration, fold higher than that of PCI: 10 fold
[3]; TM 8 nM
  effective inhibitory concentration on TM-induced retardation of t-PA-induced fibrinolysis: 126 nM

## N=C(N)NCCSC(CC(=O)O)C(=O)O (centres unmarked) [GEMSA, guanidinoethylmercaptosuccinic acid]
[2]; at 425 nM
  inhibitory activity against CPN: inhibited
[2]; at 2.1 mM
  inhibitory activity against CPN: strong inhibitory activity
CPR
  concentration at which CPR is inhibited (literature [40]): 18 mM

## CPI-2KR-cyclic: cyclised CPI-2KR via N- and C-terminal cysteine residues, SEQ ID NO: 3 (CKPAKNARC; disulfide 1-9)
[3]
  effect on TM-induced retardation of t-PA-induced fibrinolysis (in words): dramatic loss of inhibitory activity

## PCI-2K: PCI-derived peptide containing the two lysine residues, SEQ ID NO: 1 (NKPCKTHDD)
[1]
  inhibitory activity against CPR (in words): no activity was observed

## PCI-R: PCI-derived peptide containing the arginine residue, SEQ ID NO: 2 (QACWNSART)
[1]
  inhibitory activity against CPR (in words): no activity was observed

## PCI: small 39-residue protein (MW 4295 Da), potato carboxypeptidase inhibitor, SEQ ID NO: 4 (QQHADPICNKPCKTHDDCSGAWFCQACWNSARTCGPYVG) [reference compound]
[1]; hippuryl-L-arginine substrate, Lineweaver-Burke, read-out: Km of CPR in the presence of the inhibitor
  Km: 12.3 mM
CPR; read-out: Ki against CPR (literature)
  Ki: 0.4 nM
[3]
  effect on TM-induced retardation of t-PA-induced fibrinolysis (in words): permitting fibrinolysis to proceed

## tetrapeptide C-terminal fragment of PCI: tetrapeptide C-terminal fragment of PCI (PYVG)
[1]
  inhibitory activity against CPR (in words): does not inhibit
